Assay results as given in patent US5763442A, “Anti-parasitic activity” (Universiteit Van Pretoria, priority 1995, dated 1998).

Assays:
P. falciparum (RB-1) = experiment: Direct antimalarial activity, flow cytometry, strain RB-1; assay type: cell-based, Plasmodium falciparum; settings: for activity against the malaria microorganism Plasmodium falciparum: summary statement; for inhibition at 0.5 µg/mL: Plasmodium falciparum, 0.5 μg/ml, 48 h, FIG. 2, read-out: inhibition of growth of P. falciparum
Experimental: To investigate the direct antimalarial activity of the riminophenazines B669, B4100, B4103, B4112, B4121, B4158 and B4169 against a laboratory strain of P. falciparum the following experiment was done:
A laboratory strain of P. falciparum (RB-1; obtained from Dr B L Sharp, National Malaria Research Programme, MRC, Durban) was maintained.
For these experiments malaria cultures of haematocrit 5.0% and initial parasitemia 2.0% were used. The malaria infected erythrocytes (ring stage) were incubated in microtitre plates with serial dilutions of B669, B4100, B4103, B4112, B4121, B4158 and B4169 (0.125-2 μg/ml) for 48 hours and processed for analysis on the flow cytometer as described in Example 3.

P. falciparum (FAC 8) = experiment: Flow cytometry parasitaemia, chloroquine resistant strain FAC 8, chloroquine with/without B4112; assay type: cell-based, Plasmodium falciparum
Experimental: To test the activity of B4112 to reverse chloroquine resistance in Plasmodium falciparum, the following experiment was done:
A chloroquine resistant strain of P. falciparum (FAC 8) was obtained from Dr P Smith, University of Cape Town (originally from Dr A F Cowman, Royal Melbourne Hospital, Victoria, Australia).
Malaria infected erythrocytes (ring stage) were diluted with human O-positive red blood cells together with RPMI containing 44 mg/l hypoxanthine and 10% human type A serum to a parasitaemia of 2% and a haematocrit of 5%. This suspension was incubated in a gassed desiccator (5% O2, 5% CO2 and 90% N2) with serial dilutions of chloroquine ranging from 61-500 nM in 96-well microtitre culture plates for 48 hours in the presence or absence of a fixed concentration of B4112 (100 ng/ml). Relevant solvent controls were included.
At the end of the incubation period, 100 μl of the medium was removed from each well and replaced with a fixation solution containing 10 mM TRIS, 10 mM Na-Azide and 150 mM Na Cl. The plates were stored overnight at 4° C. and then 25 μl aliquots from each well were stained in test tubes with 0.5 ml thiazole orange at a concentration of 0.25 μg/ml in phosphate-buffered saline (PBS). After an incubation period of 1 hour at room temperature (in the dark), the tubes were placed on ice and the level of parasitaemia determined by flow cytometry using a Coulter Epics Profile II (Coulter Electronics Ltd, Hialeah, PLA, USA).

[1] = test system: Plasmodium falciparum (RB-1); experiment: Microscopic parasitaemia, chloroquine resistant strain RB-1 (reversal of chloroquine resistance); assay type: cell-based; settings: 24 h
Experimental: (§1) The activity of riminophenazines to reverse chloroquine resistance in Plasmodium falciparum was tested in the following manner:
(§2) A preliminary series of experiments were carried out using two laboratory strains of P. falciparum (RB-1 and Fab-9). These strains were obtained from the Medical Research Council, Durban, where they were characterised as being either mildly resistant or sensitive to chloroquine. The isolates were maintained in suspension culture in known manner (as described by Freese J A, Markus M B and Golenser J, 1991; Bulletin of the World Health Organization 69: 707-712).
(§3) Infected erythrocytes were diluted with human O-positive red blood cells to a parasitaemia of 0.2-0.9% and suspended to 3% in RPMI containing 44 mg/l hypoxanthine and 10% human type O serum. Aliquots (100 μl) of the suspension were dispensed into the wells of 96-well microtitre plates. To these suspensions 100 μl of the medium were added containing either chloroquine or B669 alone or in combination. The final drug concentrations were 31, 62, 125, 250 500 and 1000 nM for chloroquine and 0.125, 0.25, 0.5 and 1.0 μg/ml for B669. Relevant solvent controls were included. The plates were incubated for 24 hours at 38° C. in a desiccator gassed with 5% O2, 5% CO2 and 90% N2. Thin blood smears were prepared from each well, stained with Giemsa stain and the percentage of red blood cells infected by at least one parasite determined microscopically.

[2] = test system: Plasmodium falciparum (RB-9); experiment: 3H-hypoxanthine uptake, chloroquine resistant strain (RB-9 [sic]); assay type: cell-based; settings: Plasmodium falciparum, read-out: PERCENTAGE INHIBITION (3H-hypoxanthine uptake)
Experimental: (§4) The following experiment was done to confirm previous results which were obtained microscopically and details of which are set out in Example 1.
(§5) For this experiment the same two strains of P. falciparum, as used in Example 1 (RB-1 and Fab-9) were again used. Infected erythrocytes were diluted with human O-positive red blood cells to a parasitaemia of 0.2-0.9% and suspended to 3% in RPMI containing 44 mg/l hypxanthine and 10% human type serum. Aliquots (100 μl) of the suspension were dispensed into the wells of 96-well microtitre plates. To these suspensions 100 μl of the medium were added containing either chloroquine or B669 alone or a combination of chloroquine and B669. Relevant solvent controls were included. Negative control wells were also included containing uninfected red blood cells. The plates were incubated at 38° C. in a desiccator gassed with 5% O2, 5% CO2 and 90% N2. After 24 hours 100 μl culture medium of each well was replaced with […] of hypoxathine--free medium containing 10% human serum and 0,5μ Ci^3 H-hypoxanthine and incubated for a further 18 hours. The contents of the wells were then harvested on to glass fibre filters. The filters were washed with distilled water, dried, haemoglobin dissolved in a sodium bicarbonate solution and placed in scintillation vials containing 4 ml scintillation fluid and counted for 5 min in a liquid scintillation counter.
(§6) The percentage inhibition was calculated as follows: [formula] where CPM was the mean of two values of counts per minute for each treatment.

[3] = test system: Plasmodium falciparum (Fab-9); experiment: Microscopic parasitaemia, chloroquine sensitive strain Fab-9 (reversal of chloroquine resistance); assay type: cell-based; settings: 24 h
Experimental: as §1, §2, §3

[4] = test system: Plasmodium falciparum (Fab-9); experiment: 3H-hypoxanthine uptake, chloroquine sensitive strain Fab-9; assay type: cell-based; settings: Plasmodium falciparum, read-out: PERCENTAGE INHIBITION (3H-hypoxanthine uptake)
Experimental: as §4, §5, §6

[5] = test system: Plasmodium falciparum (RB-9); experiment: 3H-hypoxanthine uptake, chloroquine resistant strain (RB-9 [sic]); assay type: cell-based; settings: read-out: PERCENTAGE INHIBITION (3H-hypoxanthine uptake)
malaria parasites = settings: background, cited from earlier work

CC1(C)CC(N=c2cc3n(-c4ccc(Cl)c(Cl)c4)c4ccccc4nc-3cc2Nc2ccc(Cl)c(Cl)c2)CC(C)(C)N1 [Compound B4100, N,5-bis(3,4-dichlorophenyl)-3,5-dihydro-3-[(2',2',6',6'-tetramethyl-4-piperidyl)-imino]-2-phenazinamine]
activity against the malaria microorganism Plasmodium falciparum (P. falciparum (RB-1)): good activity

CC1(C)CC(N=c2cc3n(-c4ccc(C(F)(F)F)cc4)c4ccccc4nc-3cc2Nc2ccc(C(F)(F)F)cc2)CC(C)(C)N1 [Compound B4103, N,5-bis(4-trifluoromethylphenyl)-3,5-dihydro-3[(2',2',6',6'-tetramethyl-4-piperidyl)imino]-2-phenazinamine]
inhibition at 0.5 µg/mL (P. falciparum (RB-1)): > 50%

CC1(C)CC(N=c2cc3n(-c4cccc(Cl)c4)c4ccccc4nc-3cc2Nc2cccc(Cl)c2)CC(C)(C)N1 [Compound B4112, N,5-bis(3-chlorophenyl)-3,5-dihydro-3-[(2',2',6',6'-tetramethyl-4-piperidyl)-imino]-2-phenazinamine]
sensitivity of P. falciparum to chloroquine (inhibition) (P. falciparum (FAC 8); B4112 100 ng/ml + chloroquine 125 nM, FIG. 1): 100% | inhibition of parasite growth (P. falciparum (FAC 8); B4112 per se 100 ng/ml, 48 h): 27% | interaction of B4112 and chloroquine (P. falciparum (FAC 8); FAC 8): clearly interacted synergistically | inhibition at 0.5 µg/mL (P. falciparum (RB-1)): > 50% | activity against the malaria microorganism Plasmodium falciparum (P. falciparum (RB-1)): good activity

CC1(C)CC(N=c2cc3n(-c4cc(Cl)cc(Cl)c4)c4ccccc4nc-3cc2Nc2cc(Cl)cc(Cl)c2)CC(C)(C)N1 [Compound B4121, N,5-bis(3,5-dichlorophenyl)-3,5-dihydro-3-[(2',2',6',6'-tetramethyl-4-piperidyl)-imino]-2-phenazinamine]
activity against the malaria microorganism Plasmodium falciparum (P. falciparum (RB-1)): good activity

CC(C)c1ccc(Nc2cc3nc4ccccc4n(-c4ccc(C(C)C)cc4)c-3cc2=NC2CC(C)(C)NC(C)(C)C2)cc1 [Compound B4158, N,5-bis(4-isopropylphenyl)-3,5-dihydro-3-[(2',2',6',6'-tetramethyl-4-piperidyl)-imino]-2-phenazinarnine]
inhibition at 0.5 µg/mL (P. falciparum (RB-1)): > 50% | activity against the malaria microorganism Plasmodium falciparum (P. falciparum (RB-1)): good activity

CCN(CC)CCCC(C)Nc1ccnc2cc(Cl)ccc12 (centres unmarked) [chloroquine, reference compound]
Percentage red blood cells infected with P. falciparum (RB-1) ([1]; chloroquine 31 nM alone): 3.5% | Percentage red blood cells infected with P. falciparum (RB-1) ([1]; chloroquine 62 nM alone): 3.3% | Percentage red blood cells infected with P. falciparum (RB-1) ([1]; chloroquine 125 nM alone): 3.3% | Percentage red blood cells infected with P. falciparum (RB-1) ([1]; chloroquine 250 nM alone): 3.1% | Percentage red blood cells infected with P. falciparum (RB-1) ([1]; chloroquine 500 nM alone): 3.0% | Percentage red blood cells infected with P. falciparum (RB-1) ([1]; chloroquine 1000 nM alone): 0.4% | inhibition at 0.031 µM [2]: 0% | inhibition at 0.062 µM [2]: 0% | inhibition at 0.125 µM [2]: 8% | inhibition at 0.25 µM [2]: 33% | inhibition at 1 µM [2]: 100% | minimal effective concentration (P. falciparum (FAC 8); Plasmodium falciparum, 48 h, read-out: concentration at which chloroquine per se inhibited the growth of the parasite): ≥ 0.25 µM | inhibition at 0.125 µM (P. falciparum (FAC 8); Plasmodium falciparum, read-out: sensitivity of P. falciparum to chloroquine (inhibition)): 33% | Percentage red blood cells infected with P. falciparum (Fab-9) ([3]; chloroquine 31 nM alone): 4.9% | Percentage red blood cells infected with P. falciparum (Fab-9) ([3]; chloroquine 62 nM alone): 3.9% | Percentage red blood cells infected with P. falciparum (Fab-9) ([3]; chloroquine 125 nM alone, *parasites morphologically abnormal): 2.4% | Percentage red blood cells infected with P. falciparum (Fab-9) ([3]; chloroquine 250 nM alone, *parasites morphologically abnormal): 3.1% | Percentage red blood cells infected with P. falciparum (Fab-9) ([3]; chloroquine 500 nM alone, *parasites morphologically abnormal): 0.1% | Percentage red blood cells infected with P. falciparum (Fab-9) ([3]; chloroquine 1000 nM alone): 0% | inhibition at 0.031 µM [4]: 52.5% | inhibition at 0.062 µM [4]: 23.5% | inhibition at 0.125 µM [4]: 48.7% | inhibition at 0.25 µM [4]: 66.9% | inhibition at 0.5 µM [4]: 100% | inhibition at 1 µM [4]: 100% | inhibition at 0.5 µM [5]: 100%

COc1ccc(CCN(C)CCCC(C#N)(c2ccc(OC)c(OC)c2)C(C)C)cc1OC (centres unmarked) [verapamil]
reversal of Pg H1-mediated chloroquine resistance (malaria parasites): can be reversed | side effects of the dose required to reverse resistance (malaria parasites; in vivo): severe side effects in vivo
